Experimental data reported in patent publication US20260234164A1, “BIPHENYL COMPOUND AS IMMUNOMODULATOR, PREPARATION METHOD THEREFOR AND USE THEREOF” (SHENZHEN CHIPSCREEN BIOSCIENCES CO., LTD., priority 2021, published 2026).

Assays:
[1] = molecular target: T1, PD-1/PD-L1 binding (Homo sapiens, UniProt Q9NZQ7); assay: HTRF inhibition of PD-1/PD-L1 binding in vitro; details: His-PD-1 100 nM, PD-L1-Fc 2 nM, read-out: IC50 inhibiting PD-1/PD-L1 binding in vitro
T1 construct: purchased Sino Biological Inc. 10084-H02H-100 (PD-L1-Fc); 10377-H08H-50 (His-PD-1)
Source text: Homogeneous Time-Resolved Fluorescence (HTRF): This method used the recombinant human PD-L1 protein fused to express the hFc tag and the recombinant human PD-1 protein fused to express the His tag, both of which were interacting ligands and receptors. When the anti-hFc antibody containing Eu element chelation marker and the anti-His antibody labeled with XL665 fluorescein were bound with the above two corresponding labels, and excited by a laser with a wavelength of 320 nm, the ligand-receptor binding enabled the energy to be transferred from the Eu element to the XL665 fluorescein, which was excited to emit light at a wavelength of 665 nm. However, when an inhibitor of the interaction between PD-L1 and PD-1 was added, the binding of the ligand to the receptor was destroyed, so that the distance between Eu and XL665 was far away, the energy cannot be transferred, and XL665 would not be excited.
(§1) Recombinant human PD-1 protein with His tag (His-PD-1 protein, Cat #: 10377-H08H-50), and recombinant human PD-L1-Fc fusion protein (PD-L1-Fc fusion protein, Cat #: 10084-H02H-100) were purchased from Sino Biological Inc., anti-hFc-Eu^+ antibody and anti-His-XL665 antibody were purchased from Cisbio Company, and other related reagents such as dilution buffer (Diluent buffer 5, Cat #: 62DL5DDC), detection buffer (PPI-Europium detection buffer, Cat #: 61DB9RDF) were purchased from Cisbio Company. Fluorescence detection instrument Tecan (Spark 10 M) was purchased from Switzerland Tecan Company.
(§2) (1) Experimental preparation: The test compound was diluted with dilution buffer into different concentration gradients (the highest final concentration in 20 μL final reaction system was 10 μM), His-PD-1 protein was diluted to 800 nM (the final concentration in 20 μL final reaction system was 100 nM), and the PD-L1-Fc fusion protein was diluted to 16 nM (final concentration was 2 nM). The anti-His-XL665 antibody and anti-hFc-Eu^3+ antibody were respectively diluted 20 times and 100 times using the detection buffer according to the reagent requirements.
(§3) (2) 5 μL of test compound, 2.5 μL of PD-L1-Fc fusion protein and 2.5 μL of His-PD-1 protein solution were mixed, and incubated at room temperature for 15 min. Then the system was added with 5 μL of anti-His-XL665 antibody and 5 μL of anti-hFc-Eu^3+ antibody, incubated for another 3 h, and then detected.
(3) When detecting the reaction, a control group was also provided, including a 0% inhibition positive control without adding test compounds and a 100% inhibition negative control without adding PD-1 protein. All detections were performed with duplicates.
(§4) (4) The fluorescence signal of each well was measured using a fluorescence detector Tecan (Spark 10M) at an excitation wavelength of 320 nm, and emission wavelengths of 620 nm and 665 nm, respectively. The intensity of the mutual binding of PD-1 and PD-L1 referred to the ratio of fluorescence signals Em665/Em620.
(§5) (5) The binding inhibition rate of the test compound was calculated as follows: Inhibition rate (%)=[1−(Fluorescence signal ratio of detection well-fluorescence signal ratio of 100% inhibition negative control)]/(fluorescence signal ratio of 0% inhibition positive control-fluorescence signal ratio of 100% inhibition negative control)×100%. After calculating the inhibition rate on PD-1/PD-L1 binding of the test compounds with different concentration gradients, the 50% inhibitory concentration (IC50) was calculated.

[2] = molecular target: T2, CD80/PD-L1 binding (Homo sapiens, UniProt Q9NZQ7); assay: HTRF inhibition of CD80/PD-L1 binding in vitro; details: His-CD80 100 nM, PD-L1-Fc 2 nM, read-out: IC50 inhibiting CD80/PD-L1 binding in vitro
T2 construct: purchased Sino Biological Inc. 10084-H02H-100 (PD-L1-Fc); 10698-H08H-100 (His-CD80)
Source text: In addition to PD-1, PD-L1 can also exert immunosuppressive activity by binding to CD80. Similarly, in vitro experiments of binding or binding inhibition of CD80 and PD-L1 can also be measured by homogeneous time-resolved fluorescence (HTRF). When the anti-hFc-Eu^3+ antibody and anti-His-XL665 antibody were bound to the hFC tag fused to PD-L1 and the His tag fused to CD80 respectively, and excited with a 320 nm wavelength laser, the binding of PD-L1 and CD80 enabled energy to be transferred from the Eu element to the XL665 fluorescein, which was excited to emit light. When the inhibitor of the interaction between PD-L1 and CD80 was added, the combination of the two was destroyed, so that the distance between Eu and XL665 was far away, the energy cannot be transferred, and XL665 would not be excited.
as §1, with “CD80” for “PD-1”, “(His-CD80” for “(His-PD-1”, “10698-H08H-100),” for “10377-H08H-50),”, “anti-hFc-Eu^3+” for “anti-hFc-Eu^+”
as §2, with “His-CD80” for “His-PD-1”
as §3, with “Hid-CD80” for “PD-L1-Fc fusion”, “[…]” for “His-PD-1”
(3) When detecting the reaction, a control group was provided, including a 0% inhibition positive control without adding test compounds and a 100% inhibition negative control without adding CD-80 protein. All detections were performed with duplicates.
as §4, with “CD80” for “PD-1”
as §5, with “CD80/PD-L1” for “PD-1/PD-L1”

T2 sequence (Q9NZQ7 19-239 limits assumed): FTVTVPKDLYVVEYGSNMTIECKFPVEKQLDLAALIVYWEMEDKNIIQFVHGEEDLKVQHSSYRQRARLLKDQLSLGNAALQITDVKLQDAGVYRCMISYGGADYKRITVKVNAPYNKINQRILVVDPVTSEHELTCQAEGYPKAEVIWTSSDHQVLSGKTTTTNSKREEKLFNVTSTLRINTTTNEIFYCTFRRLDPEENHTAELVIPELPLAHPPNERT
T1 sequence (Q9NZQ7 19-239 limits assumed): as above

IC50 [1]: 2.8 nM
IC50 [2]: 1.75 nM
Structure (SMILES): [2H]C([2H])([2H])OCC12CCC(CCN3CCc4c(nc(C(=O)Nc5cccc(-c6cccc(NC(=O)c7nc8c(n7C)CCN(CCC79CCC(C(=O)O)(CC7)C9)C8)c6Cl)c5C)n4C)C3)(CC1)C2 [Compound I-4, 4-(2-(2-((2-chloro-3′-(5-(2-(4-((methoxy-d3)methyl)bicyclo[2.2.1]heptane-1-yl)ethyl)-1-methyl-4,5,6,7-tetrahydro-1H-imidazo[4,5-c]pyridine-2-carboxamido)-2′-methyl-[1,1′-biphenyl]-3-yl)carbamoyl)-1-methyl-1,4,6,7-tetrahydro-5H-imidazo[4,5-c]pyridin-5-yl)ethyl)bicyclo[2.2.1]heptane-1-carboxylic acid]
